# Measurements: patent publication US10550105B2 (Ribon Therapeutics Inc., priority 2018, dated 2020)
# pIC50: −log10 of the molar value.
# Molecular target: PARP7 (Homo sapiens (Human), UniProt Q7Z3E1)
# Assay: Enzymatic assay for inhibition of PARP7: TR-FRET displacement of biotinylated Probe A from the TIPARP active site
# Type: binding
# Conditions: Table A-1
# Summary of the method: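 Read-out: 665/615 nm emission ratio (ex 320 nm, 90 μs delay) indexing bound TIPARP–Probe A. Final incubation 30 min, 25° C; compounds in dose response. Curve fit of % inhibition vs concentration; Hill slope floating or fixed at 1 (3-parameter).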
# Sequence of PARP7 (Q7Z3E1 whole entry): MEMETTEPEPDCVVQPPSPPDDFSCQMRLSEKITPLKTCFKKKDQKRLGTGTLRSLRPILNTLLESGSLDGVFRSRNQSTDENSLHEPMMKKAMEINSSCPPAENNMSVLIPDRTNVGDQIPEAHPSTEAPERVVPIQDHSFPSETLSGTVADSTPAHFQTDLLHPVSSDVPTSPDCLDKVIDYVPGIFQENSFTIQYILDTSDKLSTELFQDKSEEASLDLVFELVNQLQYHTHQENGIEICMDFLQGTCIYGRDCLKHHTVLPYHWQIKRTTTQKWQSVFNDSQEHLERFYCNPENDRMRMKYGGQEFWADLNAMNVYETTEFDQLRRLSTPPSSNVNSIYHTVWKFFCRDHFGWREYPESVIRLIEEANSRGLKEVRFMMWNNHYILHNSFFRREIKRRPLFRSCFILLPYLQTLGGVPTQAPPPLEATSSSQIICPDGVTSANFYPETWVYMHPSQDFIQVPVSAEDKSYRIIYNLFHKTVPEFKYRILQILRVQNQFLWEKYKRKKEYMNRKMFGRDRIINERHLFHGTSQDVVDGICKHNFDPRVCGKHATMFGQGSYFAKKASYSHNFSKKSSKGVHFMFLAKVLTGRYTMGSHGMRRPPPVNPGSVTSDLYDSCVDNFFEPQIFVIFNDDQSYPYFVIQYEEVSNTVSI
row,Structure (SMILES),pIC50
1,"N#Cc1ccc(NCCC(=O)Nc2cncc(OCC3c4ccccc4CN3c3cn[nH]c(=O)c3C(F)(F)F)c2)nc1 (centres unmarked) [Example 63, 3-[(5-cyanopyridin-2-yl)amino]-N-[5-([2-[6-oxo-5-(trifluoromethyl)-1,6-dihydropyridazin-4-yl]-2,3-dihydro-1H-isoindol-1-yl]methoxy)pyridin-3-yl]propanamide]",> 7.00
2,"O=C(c1cccc(OC[C@@H]2CCCN2c2cn[nH]c(=O)c2C(F)(F)F)c1)N1CCN(c2ncc(C(F)(F)F)cn2)CC1 [Example 441, (S)-4-(Trifluoromethyl)-5-(2-((3-(4-(5-(trifluoromethyl)pyrimidin-2-yl)piperazine-1-carbonyl)phenoxy)methyl)pyrrolidin-1-yl)pyridazin-3(2H)-one]",> 7.00
3,"O=C(c1cccc(OC[C@@H]2CCCN2c2cn[nH]c(=O)c2C(F)(F)F)c1)N1CCN(c2ncccn2)CC1 [Example 445, (S)-5-(2-((3-(4-(Pyrimidin-2-yl)piperazine-1-carbonyl)phenoxy)methyl)pyrrolidin-1-yl)-4-(trifluoromethyl)pyridazin-3(2H)-one]",> 7.00
4,"N#Cc1ccc(N2CCN(C(=O)N3CC(OC[C@@H]4CCCN4c4cn[nH]c(=O)c4C(F)(F)F)C3)CC2)nc1 [Example 125, 6-[4-(3-[[(2S)-1-[6-oxo-5-(trifluoromethyl)-1,6-dihydropyridazin-4-yl]pyrrolidin-2-yl]methoxy]azetidine-1-carbonyl)piperazin-1-yl]pyridine-3-carbonitrile]",> 7.00
5,"N#Cc1ccc(N2CCN(C(=O)[C@H]3CC[C@H](OC[C@@H]4CCCN4c4cn[nH]c(=O)c4C(F)(F)F)CC3)CC2)nc1 (single isomer, unassigned; isomer a) [Example 82 Isomer A]",> 7.00
6,"N#Cc1ccc(N2CCN(C(=O)CCO[C@H]3CC[C@H]3Nc3cn[nH]c(=O)c3C(F)(F)F)CC2)nc1 [Example 541, 6-(4-[3-[(1S,2R)-2-[[6-Oxo-5-(trifluoromethyl)-1,6-dihydropyridazin-4-yl]amino]cyclobutoxy]propanoyl]piperazin-1-yl)pyridine-3-carbonitrile]",> 7.00
7,"COCCOc1ccc2c(c1)CN(c1cn[nH]c(=O)c1Cl)C2 [Example 156, 4-Chloro-5-(5-(2-methoxyethoxy)isoindolin-2-yl)pyridazin-3(2H)-one]",6.00 to 7.00
8,"N#Cc1ccc(N2CCN(C(=O)c3ccc(OCC4CCN(c5cn[nH]c(=O)c5C(F)(F)F)C4)cc3)CC2)nc1 (centres unmarked) [Example 477, 6-(4-(4-((1-(6-Oxo-5-(trifluoromethyl)-1,6-dihydropyridazin-4-yl)pyrrolidin-3-yl)methoxy)benzoyl)piperazin-1-yl)nicotinonitrile]",> 7.00
9,"C[C@@H](COCCC(=O)N1CCC(Nc2ncc(C(F)(F)F)cn2)C1)Nc1cn[nH]c(=O)c1C(F)(F)F (stereo partly drawn) [Example 710, 5-(((2S)-1-(3-Oxo-3-(3-((5-(trifluoromethyl)pyrimidin-2-yl)amino)pyrrolidin-1-yl)propoxy)propan-2-yl)amino)-4-(trifluoromethyl)pyridazin-3(2H)-one]",6.00 to 7.00
10,"O=C(CCNC[C@@H]1c2ccccc2CN1c1cn[nH]c(=O)c1C(F)(F)F)N1CCN(c2ncc(C(F)(F)F)cn2)CC1 [Example 433, (S)-5-(1-(((3-Oxo-3-(4-(5-(trifluoromethyl)pyrimidin-2-yl)piperazin-1-yl)propyl)amino)methyl)isoindolin-2-yl)-4-(trifluoromethyl)pyridazin-3(2H)-one]",> 7.00
11,"O=c1[nH]ncc(N2Cc3cccc(NC4CCNCC4)c3C2)c1C(F)(F)F [Example 297, 5-(4-(Piperidin-4-ylamino)isoindolin-2-yl)-4-(trifluoromethyl)pyridazin-3(2H)-one]",6.00 to 7.00
12,"C[C@@H](COCCC(=O)N1CCN(c2nnc(C(F)(F)F)s2)CC1)Nc1cn[nH]c(=O)c1C(F)(F)F [Example 722, (S)-5-((1-(3-Oxo-3-(4-(5-(trifluoromethyl)-1,3,4-thiadiazol-2-yl)piperazin-1-yl)propoxy)propan-2-yl)amino)-4-(trifluoromethyl)pyridazin-3(2H)-one]",> 7.00
13,"C[C@H](CC(=O)N1CCN(c2ccc(C#N)cn2)CC1)OC[C@@H]1CCCN1c1cn[nH]c(=O)c1C(F)(F)F [Example 123A, 6-[4-[(3R)-3-[[(2S)-1-[6-oxo-5-(trifluoromethyl)-1,6-dihydropyridazin-4-yl]pyrrolidin-2-yl]methoxy]butanoyl]piperazin-1-yl]pyridine-3-carbonitrile]",> 7.00
14,"C[C@@H](COCCC(=O)N1CCN(c2ncc(Cl)cn2)CC1)Nc1cn[nH]c(=O)c1Cl [Example 598, 4-Chloro-5-[[(2S)-1-[3-[4-(5-chloropyrimidin-2-yl)piperazin-1-yl]-3-oxopropoxy]propan-2-yl]amino]-2,3-dihydropyridazin-3-one]",> 7.00

# More lines, now with the values ahead:
row,pIC50,Structure (SMILES)
1,> 7.00,"O=c1[nH]ncc(N2Cc3cccc(OCc4ccncc4)c3C2)c1C(F)(F)F [Example 196, 5-(4-(Pyridin-4-ylmethoxy)isoindolin-2-yl)-4-(trifluoromethyl)pyridazin-3(2H)-one]"
2,6.00 to 7.00,"COc1ccc2c(c1)CN(c1cn[nH]c(=O)c1C)C2 [Example 173, 5-(5-Methoxyisoindolin-2-yl)-4-methylpyridazin-3(2H)-one]"
3,> 7.00,"O=C(CCOCCOc1cn[nH]c(=O)c1C(F)(F)F)N1CCN(c2ncc(Cl)cn2)CC1 [Example 533, 5-(2-[3-[4-(5-Chloropyrimidin-2-yl)piperazin-1-yl]-3-oxopropoxy]ethoxy)-4-(trifluoromethyl)-2,3-dihydropyridazin-3-one]"
4,≤ 6.00,"N#Cc1cnc(N2CCN(C(=O)c3cc(OC[C@H]4c5ccccc5CN4c4cn[nH]c(=O)c4C(F)(F)F)ccn3)CC2)nc1 (single isomer, unassigned) [Example 64 Isomer A]"
5,> 7.00,"O=C(CCOCCOc1cn[nH]c(=O)c1C(F)(F)F)N1CCN(c2ncc(C(F)(F)F)cn2)CC1 [Example 534, 5-[2-(3-Oxo-3-[4-[5-(trifluoromethyl)pyrimidin-2-yl]piperazin-1-yl]propoxy)ethoxy]-4-(trifluoromethyl)-2,3-dihydropyridazin-3-one]"
6,≤ 6.00,"CC(C)c1c(N2Cc3cccc(OCCO)c3C2)cn[nH]c1=O [Example 243, 5-(4-(2-Hydroxyethoxy)isoindolin-2-yl)-4-isopropylpyridazin-3(2H)-one]"
7,> 7.00,"C[C@@H]1CCN(c2cn[nH]c(=O)c2C(F)(F)F)[C@@H]1COc1cccc(C(=O)N2CCN(c3ccc(C#N)cn3)CC2)c1 [Example 460, 6-(4-(3-(((2S,3R)-3-methyl-1-(6-oxo-5-(trifluoromethyl)-1,6-dihydropyridazin-4-yl)pyrrolidin-2-yl)methoxy)benzoyl)piperazin-1-yl)nicotinonitrile]"
8,≤ 6.00,"N#Cc1ccc(N2CCN(C(=O)CCOC[C@H](Nc3cn[nH]c(=O)c3C(F)(F)F)c3ccncc3)CC2)nc1 [Example 527B, 6-(4-[3-[(2R)-2-[[6-Oxo-5-(trifluoromethyl)-1,6-dihydropyridazin-4-yl]amino]-2-(pyridin-4-yl)ethoxy]propanoyl]piperazin-1-yl)pyridine-3-carbonitrile]"
9,> 7.00,"O=c1[nH]ncc(N2Cc3cccc(OC[C@H]4CCCO4)c3C2)c1C(F)(F)F [Example 223, (R)-5-(4-((Tetrahydrofuran-2-yl)methoxy)isoindolin-2-yl)-4-(trifluoromethyl)pyridazin-3(2H)-one]"
10,> 7.00,"N#Cc1ccc(N2CCN(C(=O)C[C@H]3CC[C@H](CNc4cn[nH]c(=O)c4C(F)(F)F)O3)CC2)nc1 [Example 581 Isomer C, 6-(4-[2-[(2R,5R)-5-([[6-oxo-5-(trifluoromethyl)-1,6-dihydropyridazin-4-yl]amino]methyl)oxolan-2-yl]acetyl]piperazin-1-yl)pyridine-3-carbonitrile]"
11,≤ 6.00,"COC[C@H](COCCC(=O)N1CCN(c2ncc(C(F)(F)F)cn2)CC1)Oc1cn[nH]c(=O)c1Br [Example 667, (R)-4-Bromo-5-((1-methoxy-3-(3-oxo-3-(4-(5-(trifluoromethyl)pyrimidin-2-yl)piperazin-1-yl)propoxy)propan-2-yl)oxy)pyridazin-3(2H)-one]"
12,> 7.00,"C[C@@H](COCCC(=O)N1CCC(c2ccc(C#N)cn2)CC1)Oc1cn[nH]c(=O)c1C(F)(F)F [Example 658, (S)-6-(1-(3-(2-((6-Oxo-5-(trifluoromethyl)-1,6-dihydropyridazin-4-yl)oxy)propoxy)propanoyl)piperidin-4-yl)nicotinonitrile]"
13,> 7.00,"N#Cc1ccc(N2CCN(C(=O)CCOC[C@H](CO)Oc3cn[nH]c(=O)c3C(F)(F)F)CC2)nc1 (single isomer, unassigned) [Example 573 Isomer C]"
14,> 7.00,"O=C(C[C@@H]1CC[C@@H]([C@@H]2CCCN2c2cn[nH]c(=O)c2C(F)(F)F)O1)N1CCN(c2ncc(Cl)cn2)CC1 [Example 147A, 5-[(2S)-2-[(2S,5S)-5-[2-[4-(5-chloropyrimidin-2-yl)piperazin-1-yl]-2-oxoethyl]oxolan-2-yl]pyrrolidin-1-yl]-4-(trifluoromethyl)-2,3-dihydropyridazin-3-one]"
15,6.00 to 7.00,"NCc1cc2c(cc1F)CN(c1cn[nH]c(=O)c1C(F)(F)F)C2 [Example 327, 5-(5-(Aminomethyl)-6-fluoroisoindolin-2-yl)-4-(trifluoromethyl)pyridazin-3(2H)-one]"
16,6.00 to 7.00,"O=c1[nH]ncc(N2Cc3nccc(OCCN4CCOCC4)c3C2)c1C(F)(F)F [Example 10, 5-[4-[2-(morpholin-4-yl)ethoxy]-5H,6H,7H-pyrrolo[3,4-b]pyridin-6-yl]-4-(trifluoromethyl)-2,3-dihydropyridazin-3-one]"
17,6.00 to 7.00,"COc1cccc2c1CN(c1cn[nH]c(=O)c1Cl)C2 [Example 153, 4-Chloro-5-(4-methoxyisoindolin-2-yl)pyridazin-3(2H)-one]"
18,> 7.00,"N#Cc1ccc(N2CCN(C(=O)/C=C/COC[C@@H]3c4ccccc4CN3c3cn[nH]c(=O)c3C(F)(F)F)CC2)nc1 [Example 79 Isomer C, 6-[4-[(2E)-4-[[(1S)-2-[6-oxo-5-(trifluoromethyl)-1,6-dihydropyridazin-4-yl]-2,3-dihydro-1H-isoindol-1-yl]methoxy]but-2-enoyl]piperazin-1-yl]pyridine-3-carbonitrile]"
